Series [1] in a line: Inhibition of TPA-induced EBV-early antigen activation in human Raji cells assessed as EA activation. In kind it is cell-based, human gammaherpesvirus 4.
The test system of series [2] is Mus musculus. The series can be described thus: Inhibition of DMBA-induced/TPA-promoted carcinogenesis in mouse assessed as number of skin papillomas per mouse at 85 nmol administered twice weekly after 1 week of initiation for 20 weeks. In kind it is functional.
Series [3] has as its system Mus musculus. The series can be described thus: Inhibition of DMBA-induced/TPA-promoted carcinogenesis in mouse assessed as number of mouse bearing papillomas at 85 nmol administered twice weekly after 1 week of initiation for 11 weeks. In kind it is functional. The arrangement: scale not given: the % may be the effect or the level left.
The test system of series [4] is Raji. The series can be described thus: Inhibition of TPA-induced EBV-early antigen activation in human Raji cells assessed as EA activation at 10 molar ratio […] relative to TPA. In kind it is cell-based. The arrangement: scale not given: the % may be the effect or the level left. Particulars: human gammaherpesvirus 4.
Series [5] concerns Raji. The series can be described thus: Inhibition of TPA-induced EBV-early antigen activation in human Raji cells assessed as EA activation at 1000 molar ratio after 48 hrs relative to TPA. In kind it is cell-based. More on the design: scale not given: the % may be the effect or the level left. The note with it: human gammaherpesvirus 4.
Series [6] deals with Raji. Nature of the series: Inhibition of TPA-induced EBV-early antigen activation in human Raji cells assessed as EA activation at 100 molar ratio […] relative to TPA. In kind it is cell-based. The arrangement: scale not given: the % may be the effect or the level left. The note with it: human gammaherpesvirus 4.
Series [7] relates to Mus musculus. The series can be described thus: Inhibition of DMBA-induced/TPA-promoted carcinogenesis in mouse assessed as number of mouse bearing papillomas at 85 nmol administered twice weekly after 1 week of initiation for 20 weeks. In kind it is functional. More on the design: scale not given: the % may be the effect or the level left.
Series [8] concerns Raji. Nature of the series: Inhibition of TPA-induced EBV-early antigen activation in human Raji cells assessed as EA activation at 500 molar ratio after 48 hrs relative to TPA. In kind it is cell-based. The note with it: human gammaherpesvirus 4. More on the design: scale not given: the % may be the effect or the level left.
The nature of series [9]: Cytotoxicity against human Raji cells assessed as cell viability at 1000 molar ratio by trypan blue staining relative to control. In kind it is cell-based. The note with it: read-out: Activity.
Series [10] has as its system Mus musculus. The series can be described thus: Inhibition of DMBA-induced/TPA-promoted carcinogenesis in mouse assessed as number of skin papillomas per mouse at 85 nmol administered twice weekly after 1 week of initiation for 11 weeks. In kind it is functional.

`CC(C)=CCC[C@@H](C=O)[C@H]1CC[C@@]2(C)C3=C(CC[C@]12C)[C@@]1(C)CC[C@H](O)C(C)(C)[C@@H]1CC3`: the IC50 in [1] stood at 232 molar ratio. Moreover, the Activity in the series with Mus musculus [2] stood at 3.8; in the series on Mus musculus [3], 33.3%; in the series on Raji [4], 90.4%; in the series with Raji [5], 0%; in the series on Raji [6], 64%; in the series with Mus musculus [7], 73.3%. Besides, the Activity was 35.1% in the series on Raji [8] and 1.2 with Mus musculus [10]. Moreover, the viability at 1000 molar ratio in [9] worked out at 70%.

`C[C@H]([C@H](O)/C=C/C(C)(C)O)[C@H]1CC[C@@]2(C)C3=CC[C@H]4C(C)(C)[C@@H](O)CC[C@]4(C)C3=CC[C@]12C`: in [1], the IC50 was 228 molar ratio. Also, the Activity came to 88.2% in the series on Raji [4], 0% in the series with Raji [5], 67.3% in the series with Raji [6] and 25.1% with Raji [8]. The viability at 1000 molar ratio in [9] turned out to be 70%.

Consider `CC1(C)CC[C@]2(C(=O)O)CC[C@]3(C)C(=CC[C@@H]4[C@@]5(C)CC[C@H](O)C(C)(C)[C@@H]5CC[C@]43C)[C@@H]2C1` [OLEANOLIC_ACID], for which the IC50 in series [1] was 389 molar ratio. The Activity in the series on Raji [4] came to 100%; with Raji [5], 12.7%; with Raji [6], 80%; in the series on Raji [8], 30%.

In the case of `CC(C)=CCC[C@@H](CO)[C@H]1CC[C@@]2(C)C3=C(CC[C@]12C)[C@@]1(C)CC[C@H](O)C(C)(C)[C@@H]1CC3`, the IC50 in [1] stood at 392 molar ratio. The Activity turned out to be 100% in the series on Raji [4], 10.9% with Raji [5], 77.5% in the series with Raji [6] and 47.1% in the series on Raji [8]. Moreover, the viability at 1000 molar ratio in [9] came out at 70%.

As to `C[C@H]([C@H](O)/C=C/C(C)(C)O)[C@H]1CC[C@@]2(C)C3=C(CC[C@]12C)[C@@]1(C)CC[C@H](O)C(C)(C)[C@@H]1CC3`, the IC50 in [1] worked out at 231 molar ratio. For the same molecule, the Activity in the series with Raji [4] amounted to 89.2%; with Raji [5], 0%; with Raji [6], 69.8%; in the series on Raji [8], 26.9%. The viability at 1000 molar ratio in [9] was 70%.

The record behind these values is ChEMBL document CHEMBL1154471, “Lanostane-type triterpenoids from the sclerotia of Inonotus obliquus possessing anti-tumor promoting activity” (Eur J Med Chem, 2008).
